This passage reports carcinogen call results from PubChem BioAssay AID1259411 (Chemical Carcinogenesis Research Information System (CCRIS), 2018).

The test system of the series is rodent carcinogenicity bioassays, tumor incidence. Put plainly: CCRIS carcinogenicity studies. Put shortly:
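NCI-built, expert-reviewed records of carcinogenicity and related test outcomes (mutagenicity, tumor promotion/inhibition) compiled from published and report sources, historical span 1985-2011, not updated.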

The source made the active and inactive calls. No rule for the calls is given here.

Take `O=[O+][O-]`: the carcinogen call by setting is: (Species: MOUSE, Strain/Sex: B6C3F1/FEMALE, Route: INHALATION, Dose: 0, 0.12, 0.5, 1 PPM 6 HR/D 5 D/WK FOR 105 WK (STUDY DURATION: 105 WK), Dose: 0, 0.12, 0.5, 1 PPM 6 HR/D 5 D/WK FOR 105 WK (STUDY DURATION: 105 WK), Tumor Site: Type of Lesion: LUNG (ALVEOLAR/BRONCHIOLAR): ADENOMA OR CARCINOMA) “active; positive”; (Species: MOUSE, Strain/Sex: B6C3F1/FEMALE, Route: INHALATION, Dose: 0, 0.5, 1 PPM 6 HR/D 5 D/WK FOR 130 WK (STUDY DURATION: 130 WK), Dose: 0, 0.5, 1 PPM 6 HR/D 5 D/WK FOR 130 WK (STUDY DURATION: 130 WK), Tumor Site: Type of Lesion: LUNG (ALVEOLAR/BRONCHIOLAR): ADENOMA) “active; positive”; (Species: MOUSE, Strain/Sex: B6C3F1/MALE, Route: INHALATION, Dose: 0, 0.12, 0.5, 1 PPM 6 HR/D 5 D/WK FOR 105 WK (STUDY DURATION: 105 WK), Dose: 0, 0.12, 0.5, 1 PPM 6 HR/D 5 D/WK FOR 105 WK (STUDY DURATION: 105 WK), Tumor Site: Type of Lesion: LUNG: ALVEOLAR/BRONCHIOLAR ADENOMA OR CARCINOMA) “equivocal”; (Species: MOUSE, Strain/Sex: B6C3F1/MALE, Route: INHALATION, Dose: 0, 0.5, 1 PPM 6 HR/D 5 D/WK FOR 130 WK (STUDY DURATION: 130 WK), Dose: 0, 0.5, 1 PPM 6 HR/D 5 D/WK FOR 130 WK (STUDY DURATION: 130 WK), Tumor Site: Type of Lesion: LUNG: ALVEOLAR/BRONCHIOLAR ADENOMA OR CARCINOMA) “equivocal”; (Species: RAT, Strain/Sex: F344/FEMALE, Route: INHALATION, Dose: 0, 0.12, 0.5, 1 PPM 6 HR/D 5 D/WK FOR 20 MO (STUDY DURATION: 20 MO), Dose: 0, 0.12, 0.5, 1 PPM 6 HR/D 5 D/WK FOR 20 MO (STUDY DURATION: 20 MO)) “inactive; negative”; (Species: RAT, Strain/Sex: F344/FEMALE, Route: INHALATION, Dose: 0, 0.12, 0.5, 1 PPM 6 HR/D 5 D/WK FOR 105 WK (STUDY DURATION: 105 WK), Dose: 0, 0.12, 0.5, 1 PPM 6 HR/D 5 D/WK FOR 105 WK (STUDY DURATION: 105 WK)) “inactive; negative”. The carcinogen call is “inactive; negative” (Species: RAT, Strain/Sex: F344/FEMALE, Route: INHALATION, Dose: 0, 0.5, 1 PPM 6 HR/D 5 D/WK FOR 125 WK (STUDY DURATION: 125 WK), Dose: 0, 0.5, 1 PPM 6 HR/D 5 D/WK FOR 125 WK (STUDY DURATION: 125 WK)); “inactive; negative” (Species: RAT, Strain/Sex: F344/MALE, Route: INHALATION, Dose: 0, 0.12, 0.5, 1 PPM 6 HR/D 5 D/WK FOR 20 MO (STUDY DURATION: 20 MO), Dose: 0, 0.12, 0.5, 1 PPM 6 HR/D 5 D/WK FOR 20 MO (STUDY DURATION: 20 MO)); “inactive; negative” (Species: RAT, Strain/Sex: F344/MALE, Route: INHALATION, Dose: 0, 0.12, 0.5, 1 PPM 6 HR/D 5 D/WK FOR 105 WK (STUDY DURATION: 105 WK), Dose: 0, 0.12, 0.5, 1 PPM 6 HR/D 5 D/WK FOR 105 WK (STUDY DURATION: 105 WK)); “inactive; negative” (Species: RAT, Strain/Sex: F344/MALE, Route: INHALATION, Dose: 0, 0.5, 1 PPM 6 HR/D 5 D/WK FOR 125 WK (STUDY DURATION: 125 WK), Dose: 0, 0.5, 1 PPM 6 HR/D 5 D/WK FOR 125 WK (STUDY DURATION: 125 WK)).

Consider `[Be]`, for which the carcinogen call was “active; positive” (Species: RAT, Strain/Sex: WISTAR/FEMALE, Route: INTRATRACHEAL, Dose: 0, 0.5, 2.5 MG, SINGLE DOSE IN SALINE SUSPENSION, Tumor Site: Type of Lesion: LUNG) and “active; positive” (Species: RAT, Strain/Sex: WISTAR/FEMALE, Route: INTRATRACHEAL, Dose: 0.5, 2.5 MG/RAT IN SALINE SUSPENDED ONCE, Tumor Site: Type of Lesion: LUNG).

Turning to `Cc1cccc2c1cc(C)c1c3c(ccc12)C(O)C(O)C1OC31` (stereo not given), the carcinogen call runs as follows: (Species: MOUSE, Strain/Sex: ICR/FEMALE, Route: INTRAPERITONEAL, Dose: 0, 8 NMOL IN 5 µL DMSO TO PUPS ON D 1/OF LIFE THEN 16 NMOL IN 10 µL ON D 8 AND 3 NMOL IN 20 µL ON D 15 (STUDY DURATION:, Tumor Site: Type of Lesion: LUNG: TUMOR) “active; positive”; (Species: MOUSE, Strain/Sex: ICR/MALE, Route: INTRAPERITONEAL, Dose: 0, 8 NMOL IN 5 µL DMSO TO PUPS ON D 1/OF LIFE THEN 16 NMOL IN 10 µL ON D 8 AND 3 NMOL IN 20 µL ON D 15 (STUDY DURATION:, Tumor Site: Type of Lesion: LUNG: TUMOR, LIVER: TUMOR) “active; positive”.

On to `CCN(CC(F)(F)F)N=O`, for which the carcinogen call (Species: RAT, Strain/Sex: SPRAGUE-DAWLEY/MALE, Route: GAVAGE, Dose: 7.5, 15, 30, 60 MG/KG IN VEGETABLE OIL 2/WK, Dose: 7.5, 15, 30, 60 MG/KG IN VEGETABLE OIL 2/WK, Tumor Site: Type of Lesion: ESOPHAGUS: CARCINOMA, NASAL CAVITY: SQUAMOUS CELL CARCINOMA) is “active; positive”.

In the case of `O=NN1CCCOC1`, the carcinogen call (Species: RAT, Strain/Sex: F344/FEMALE, Route: ORAL, Dose: 40 MG/L IN DRINKING WATER FOR 50 WK, Tumor Site: Type of Lesion: LIVER: HEPATOCELLULAR CARCINOMA, HEMANGIOENDOTHELIAL SARCOMA) is “active; positive”.

Consider `CC(=O)c1ccc(S(=O)(=O)NC(=O)NC2CCCCC2)cc1`, for which the carcinogen call by setting is: (Species: MOUSE, Strain/Sex: B6C3F1/FEMALE, Route: ORAL, Dose: 0, 6359, 12718 PPM IN DIET, TWA, Dose: 0, 6359, 12718 PPM IN DIET, TWA) “inactive; negative”; (Species: MOUSE, Strain/Sex: B6C3F1/MALE, Route: ORAL, Dose: 0, 6359, 12718 PPM IN DIET, TWA, Dose: 0, 6359, 12718 PPM IN DIET, TWA) “inactive; negative”; (Species: RAT, Strain/Sex: F344/FEMALE, Route: ORAL, Dose: 0, 10000, 20000 PPM IN DIET, Dose: 0, 10000, 20000 PPM IN DIET) “inactive; negative”; (Species: RAT, Strain/Sex: F344/MALE, Route: ORAL, Dose: 0, 10000, 20000 PPM IN DIET, Dose: 0, 10000, 20000 PPM IN DIET) “inactive; negative”.

With `CC(COc1ccc(C(C)(C)C)cc1)OS(=O)OCCCl` (stereo not given), the carcinogen call was “active; positive” (Species: DOG, Strain/Sex: MONGREL/MALE,FEMALE, Route: ORAL, Dose: 0, 500, 828-1420 PPM IN DIET FOR 3.5 YR, Dose: 0, 500, 828-1420 PPM IN DIET FOR 3.5 YR, Tumor Site: Type of Lesion: BILE DUCT: ADENOCARCINOMA, GALL BLADDER: ADENOCARCINOMA); “active; positive” (Species: MOUSE, Strain/Sex: B6C3F1/MALE,FEMALE, Route: GAVAGE/ORAL, Dose: 464 MG/KG FROM D 7-28 OF LIFE THEN 1112 PPM IN DIET, Tumor Site: Type of Lesion: LIVER: HEPATOMA); “active; positive” (Species: RAT, Strain/Sex: WISTAR/MALE,FEMALE, Route: ORAL, Dose: 500, 1580, 5000 PPM IN DIET FOR 2 YR, Dose: 500, 1580, 5000 PPM IN DIET FOR 2 YR, Tumor Site: Type of Lesion: LIVER: HEPATOMA, CHOLANGIOMA).

With `Cc1c2ccccc2c(C=O)c2ccc3ccccc3c12`, the carcinogen call is “active; positive (15%)” (Species: RAT, Strain/Sex: SPRAGUE-DAWLEY/FEMALE (13/GROUP), Route: SUBCUTANEOUS, Dose: 0.2 UMOL 3X A WK FOR 20 DOSES (STUDY DURATION: 52 WK), Tumor Site: Type of Lesion: MAMMARY: ADENOCARCINOMA) and “active; positive (85%)” (Species: RAT, Strain/Sex: SPRAGUE-DAWLEY/FEMALE (13/GROUP), Route: SUBCUTANEOUS, Dose: 0.2 UMOL 3X A WK FOR 20 DOSES (STUDY DURATION: 52 WK), Tumor Site: Type of Lesion: SUBCUTANEOUS, SARCOMA).

Take `O=S1(=O)CCCO1`: the carcinogen call (Species: MOUSE, Strain/Sex: ICR/FEMALE, Route: SUBCUTANEOUS, Dose: 0.3 MG IN WATER 1/WK FOR 63 WK, Tumor Site: Type of Lesion: INJECTION SITE: ADENOACANTHOMA, SARCOMA) was “active; positive”; the carcinogen call (Species: RAT, Strain/Sex: STRAIN-BD, Route: SUBCUTANEOUS, Dose: 15, 30 MG/KG IN ARACHIS OIL 1/WK FOR 1 YR, Tumor Site: Type of Lesion: INJECTION SITE: MYOSARCOMA, FIBROSARCOMA) was “active; positive”; the carcinogen call (Species: RAT, Strain/Sex: STRAIN-BD, Route: SUBCUTANEOUS, Dose: 15, 30 MG/KG IN WATER 1/WK FOR 1 YR, Tumor Site: Type of Lesion: INJECTION SITE: SARCOMA) is “active; positive”; the carcinogen call (Species: RAT, Strain/Sex: STRAIN-CD/FEMALE, Route: GAVAGE, Dose: 28, 56 MG/KG IN WATER 2/WK FOR 78 WK (LOW DOSE) OR 32 WK (HIGH DOSE), Tumor Site: Type of Lesion: BRAIN (CEREBELLUM, CEREBRUM): MALIGNANT GLIOMA, MAMMARY GLAND: ADENOCARCINOMA) was “active; positive”; the carcinogen call (Species: RAT, Strain/Sex: STRAIN-CD/MALE, Route: GAVAGE, Dose: 28, 56 MG/KG IN WATER 2/WK FOR 78 WK (LOW DOSE) OR 32 WK (HIGH DOSE), Tumor Site: Type of Lesion: BRAIN (CEREBELLUM, CEREBRUM): MALIGNANT GLIOMA) was “active; positive”.
